How the values were obtained:
Alpha2C = target: T1, Alpha2C (Homo sapiens, UniProt P18825); experiment: PDSP radioligand displacement binding; conditions: average of three independent trials
T1 sequence (P18825 1-462): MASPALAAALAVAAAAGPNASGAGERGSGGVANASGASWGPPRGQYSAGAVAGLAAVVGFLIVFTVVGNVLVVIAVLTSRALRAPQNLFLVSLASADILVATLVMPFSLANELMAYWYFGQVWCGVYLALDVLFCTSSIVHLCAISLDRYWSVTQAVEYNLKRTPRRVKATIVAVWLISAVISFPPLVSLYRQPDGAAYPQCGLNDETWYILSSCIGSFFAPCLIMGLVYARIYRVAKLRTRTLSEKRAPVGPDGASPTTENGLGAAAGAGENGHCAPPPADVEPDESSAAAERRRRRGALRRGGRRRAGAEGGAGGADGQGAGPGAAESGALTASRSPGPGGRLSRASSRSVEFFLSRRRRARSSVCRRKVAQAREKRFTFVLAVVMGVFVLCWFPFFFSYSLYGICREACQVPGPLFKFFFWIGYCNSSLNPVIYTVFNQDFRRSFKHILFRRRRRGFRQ

5-HT7A = 5-HT7A (Homo sapiens, UniProt P34969); experiment: PDSP radioligand displacement binding; conditions: average of three independent trials
HERG = HERG (Homo sapiens, UniProt Q12809); experiment: PDSP radioligand displacement binding; conditions: average of three independent trials
μOR = target: T2, μOR (Homo sapiens, UniProt P35372); experiment: cell-based; type: cell-based
T2 construct: host or cells: CHO-K1

5-HT5A = 5-HT5A (Homo sapiens, UniProt P47898); experiment: PDSP radioligand displacement binding; conditions: average of three independent trials
κOR = target: T3, κOR (Homo sapiens, UniProt P41145); experiment: PathHunter β-arrestin-2 recruitment assay at the κOR; type: cell-based; conditions: FIG. 6
T3 construct: host or cells: CHO-K1
From the text: Cell Lines and Cell Culture. To perform the HitHunter cAMP accumulation assay, Chinese hamster ovary cells (CHO-K1) stably expressing human μ-opioid receptor (OPRM1, catalog no. 95-0107C2, DiscoverX, Fremont, CA, USA), K-opioid receptor (OPRK1, catalog no. 95-0088C2, DiscoverX, Fremont, CA, USA), or 6-opioid receptor (OPRD1, catalog no. 95-0108C2, DiscoverX, Fremont, CA, USA) were maintained at 80% confluence in F-12 media supplemented with 10% fetal bovine serum, 1% penicillin/streptomycin/L-glutamine, and 800 μg/mL G418. To perform the PathHunter β-arrestin-2 recruitment assay, U2OS-human κ opioid receptor (κOR) cells stably expressing the κOR and β-arrestin-2 (RRID:CVCL_LA97, DiscoverX, Fremont, CA, USA) were maintained in McCoy's 5A media supplemented with 10% FBS and containing 500 μg/mL geneticin and 250 μg/mL hygromycin. All cells were grown 37° C. under 5% CO2 in a humidified incubator under sterile conditions in T75 flasks. During passaging, cells were dislodged from the flask following a 3-5 min incubation with 0.25% trypsin or non-enzymatic detachment reagent and subcultivated at ratios of 1:10 (CHO) and 3:10 (U2OS).
PathHunter β-arrestin-2 Recruitment Assay. The R-arrestin-2 recruitment assay was performed using U2OS-human (κOR) PathHunter R-arrestin-2 cells (DiscoverX) as previously described.^77

NET = NET (Homo sapiens, UniProt P23975); experiment: PDSP radioligand displacement binding; conditions: average of three independent trials
Alpha2B = target: T4, Alpha2B (Homo sapiens, UniProt P18089); experiment: PDSP radioligand displacement binding; conditions: average of three independent trials
T4 sequence (P18089 1-450): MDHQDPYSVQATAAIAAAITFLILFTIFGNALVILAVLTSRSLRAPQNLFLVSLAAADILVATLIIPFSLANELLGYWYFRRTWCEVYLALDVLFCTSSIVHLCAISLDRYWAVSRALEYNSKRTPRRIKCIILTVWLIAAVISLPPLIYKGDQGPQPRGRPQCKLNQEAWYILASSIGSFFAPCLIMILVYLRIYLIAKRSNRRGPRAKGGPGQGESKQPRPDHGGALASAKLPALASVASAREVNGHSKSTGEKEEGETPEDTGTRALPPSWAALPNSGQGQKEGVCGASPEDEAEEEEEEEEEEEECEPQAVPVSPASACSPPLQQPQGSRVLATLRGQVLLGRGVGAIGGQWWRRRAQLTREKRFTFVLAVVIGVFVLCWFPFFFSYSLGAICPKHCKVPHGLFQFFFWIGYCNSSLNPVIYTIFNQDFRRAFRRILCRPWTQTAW

5-HT3 = target: T5, 5-HT3 (Homo sapiens, UniProt P46098); experiment: PDSP radioligand displacement binding; conditions: average of three independent trials
T5 sequence (P46098 24-478): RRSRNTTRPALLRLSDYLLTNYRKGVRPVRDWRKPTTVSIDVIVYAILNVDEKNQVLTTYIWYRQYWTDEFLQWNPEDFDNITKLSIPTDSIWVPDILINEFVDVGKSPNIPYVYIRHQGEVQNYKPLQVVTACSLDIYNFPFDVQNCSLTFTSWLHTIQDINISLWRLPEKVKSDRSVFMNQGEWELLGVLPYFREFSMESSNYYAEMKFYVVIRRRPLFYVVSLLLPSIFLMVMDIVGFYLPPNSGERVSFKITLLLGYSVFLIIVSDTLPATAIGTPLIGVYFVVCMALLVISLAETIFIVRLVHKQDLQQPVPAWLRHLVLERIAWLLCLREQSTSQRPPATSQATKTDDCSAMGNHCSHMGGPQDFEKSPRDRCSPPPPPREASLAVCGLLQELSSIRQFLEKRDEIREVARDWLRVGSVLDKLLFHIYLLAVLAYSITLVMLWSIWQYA

DOR = DOR (Homo sapiens, UniProt P41143); experiment: PDSP radioligand displacement binding; conditions: average of three independent trials
Chain of DOR (P41143 whole entry): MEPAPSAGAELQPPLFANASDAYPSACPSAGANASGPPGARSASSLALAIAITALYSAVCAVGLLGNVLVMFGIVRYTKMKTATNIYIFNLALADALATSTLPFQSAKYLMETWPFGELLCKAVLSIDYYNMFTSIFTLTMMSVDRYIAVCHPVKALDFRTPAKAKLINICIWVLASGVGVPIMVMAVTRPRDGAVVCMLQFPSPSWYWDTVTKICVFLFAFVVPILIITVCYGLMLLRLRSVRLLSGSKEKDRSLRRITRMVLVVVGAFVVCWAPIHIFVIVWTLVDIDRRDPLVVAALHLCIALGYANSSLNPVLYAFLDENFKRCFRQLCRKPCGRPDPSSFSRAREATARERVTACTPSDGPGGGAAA

T2 sequence (P35372 whole entry): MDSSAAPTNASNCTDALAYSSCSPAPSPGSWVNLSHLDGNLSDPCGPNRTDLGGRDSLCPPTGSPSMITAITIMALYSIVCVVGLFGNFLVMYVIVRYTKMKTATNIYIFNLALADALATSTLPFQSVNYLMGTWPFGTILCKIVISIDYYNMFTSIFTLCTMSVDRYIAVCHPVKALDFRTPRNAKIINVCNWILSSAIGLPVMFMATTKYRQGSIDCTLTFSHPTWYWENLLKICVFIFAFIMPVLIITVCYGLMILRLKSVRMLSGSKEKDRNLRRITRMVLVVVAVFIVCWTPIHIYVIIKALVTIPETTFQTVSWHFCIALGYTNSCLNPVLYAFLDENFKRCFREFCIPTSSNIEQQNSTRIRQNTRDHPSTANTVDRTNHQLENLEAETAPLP
Chain of 5-HT5A (P47898 whole entry, species assumed): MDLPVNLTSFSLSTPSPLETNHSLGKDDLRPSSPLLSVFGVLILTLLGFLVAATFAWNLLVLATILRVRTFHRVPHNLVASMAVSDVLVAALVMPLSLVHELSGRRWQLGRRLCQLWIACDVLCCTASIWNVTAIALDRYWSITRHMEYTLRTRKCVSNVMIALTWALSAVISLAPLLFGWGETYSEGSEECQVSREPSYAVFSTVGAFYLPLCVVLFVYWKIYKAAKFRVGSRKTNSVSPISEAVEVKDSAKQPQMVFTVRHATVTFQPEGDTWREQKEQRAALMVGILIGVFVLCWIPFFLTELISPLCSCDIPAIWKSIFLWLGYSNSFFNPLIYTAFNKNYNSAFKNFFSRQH
T3 sequence (P41145 whole entry): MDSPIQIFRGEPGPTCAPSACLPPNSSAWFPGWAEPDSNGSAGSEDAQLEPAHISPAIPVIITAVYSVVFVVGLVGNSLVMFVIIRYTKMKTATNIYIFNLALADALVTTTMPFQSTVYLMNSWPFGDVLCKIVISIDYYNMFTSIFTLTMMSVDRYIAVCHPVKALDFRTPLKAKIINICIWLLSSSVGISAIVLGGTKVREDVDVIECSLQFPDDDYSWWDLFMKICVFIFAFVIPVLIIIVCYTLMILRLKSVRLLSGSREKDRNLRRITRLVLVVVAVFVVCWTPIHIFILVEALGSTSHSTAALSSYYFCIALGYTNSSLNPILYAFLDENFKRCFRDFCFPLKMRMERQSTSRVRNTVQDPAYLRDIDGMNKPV
Chain of NET (P23975 whole entry): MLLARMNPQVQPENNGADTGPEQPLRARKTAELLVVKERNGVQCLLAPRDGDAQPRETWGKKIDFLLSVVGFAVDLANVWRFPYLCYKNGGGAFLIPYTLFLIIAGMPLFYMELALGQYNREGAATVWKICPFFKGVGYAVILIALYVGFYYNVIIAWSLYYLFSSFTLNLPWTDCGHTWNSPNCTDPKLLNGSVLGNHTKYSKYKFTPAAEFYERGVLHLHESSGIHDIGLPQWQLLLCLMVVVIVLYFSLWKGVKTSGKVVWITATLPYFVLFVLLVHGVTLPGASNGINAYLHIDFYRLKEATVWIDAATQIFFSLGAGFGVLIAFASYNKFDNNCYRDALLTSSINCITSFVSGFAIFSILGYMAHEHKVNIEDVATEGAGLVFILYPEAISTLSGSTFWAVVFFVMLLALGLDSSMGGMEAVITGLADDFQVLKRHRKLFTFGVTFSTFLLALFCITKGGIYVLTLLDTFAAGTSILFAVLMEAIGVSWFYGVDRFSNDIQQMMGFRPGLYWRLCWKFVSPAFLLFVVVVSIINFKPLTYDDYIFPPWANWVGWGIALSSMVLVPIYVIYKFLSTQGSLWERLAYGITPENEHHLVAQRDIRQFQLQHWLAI
Chain of 5-HT7A (P34969 1-445 isoform P34969-2): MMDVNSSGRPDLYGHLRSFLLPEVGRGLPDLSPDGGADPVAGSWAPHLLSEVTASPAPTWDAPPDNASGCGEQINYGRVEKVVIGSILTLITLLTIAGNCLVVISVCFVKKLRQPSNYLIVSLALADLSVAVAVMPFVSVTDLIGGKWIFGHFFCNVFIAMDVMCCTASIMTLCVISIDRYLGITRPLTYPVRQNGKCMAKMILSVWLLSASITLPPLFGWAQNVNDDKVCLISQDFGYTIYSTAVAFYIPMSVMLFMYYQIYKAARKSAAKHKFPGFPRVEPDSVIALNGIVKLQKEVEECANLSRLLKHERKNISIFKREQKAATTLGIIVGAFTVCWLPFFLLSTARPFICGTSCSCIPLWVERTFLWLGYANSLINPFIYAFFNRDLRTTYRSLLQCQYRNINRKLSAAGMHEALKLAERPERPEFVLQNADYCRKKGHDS
Chain of HERG (Q12809 whole entry): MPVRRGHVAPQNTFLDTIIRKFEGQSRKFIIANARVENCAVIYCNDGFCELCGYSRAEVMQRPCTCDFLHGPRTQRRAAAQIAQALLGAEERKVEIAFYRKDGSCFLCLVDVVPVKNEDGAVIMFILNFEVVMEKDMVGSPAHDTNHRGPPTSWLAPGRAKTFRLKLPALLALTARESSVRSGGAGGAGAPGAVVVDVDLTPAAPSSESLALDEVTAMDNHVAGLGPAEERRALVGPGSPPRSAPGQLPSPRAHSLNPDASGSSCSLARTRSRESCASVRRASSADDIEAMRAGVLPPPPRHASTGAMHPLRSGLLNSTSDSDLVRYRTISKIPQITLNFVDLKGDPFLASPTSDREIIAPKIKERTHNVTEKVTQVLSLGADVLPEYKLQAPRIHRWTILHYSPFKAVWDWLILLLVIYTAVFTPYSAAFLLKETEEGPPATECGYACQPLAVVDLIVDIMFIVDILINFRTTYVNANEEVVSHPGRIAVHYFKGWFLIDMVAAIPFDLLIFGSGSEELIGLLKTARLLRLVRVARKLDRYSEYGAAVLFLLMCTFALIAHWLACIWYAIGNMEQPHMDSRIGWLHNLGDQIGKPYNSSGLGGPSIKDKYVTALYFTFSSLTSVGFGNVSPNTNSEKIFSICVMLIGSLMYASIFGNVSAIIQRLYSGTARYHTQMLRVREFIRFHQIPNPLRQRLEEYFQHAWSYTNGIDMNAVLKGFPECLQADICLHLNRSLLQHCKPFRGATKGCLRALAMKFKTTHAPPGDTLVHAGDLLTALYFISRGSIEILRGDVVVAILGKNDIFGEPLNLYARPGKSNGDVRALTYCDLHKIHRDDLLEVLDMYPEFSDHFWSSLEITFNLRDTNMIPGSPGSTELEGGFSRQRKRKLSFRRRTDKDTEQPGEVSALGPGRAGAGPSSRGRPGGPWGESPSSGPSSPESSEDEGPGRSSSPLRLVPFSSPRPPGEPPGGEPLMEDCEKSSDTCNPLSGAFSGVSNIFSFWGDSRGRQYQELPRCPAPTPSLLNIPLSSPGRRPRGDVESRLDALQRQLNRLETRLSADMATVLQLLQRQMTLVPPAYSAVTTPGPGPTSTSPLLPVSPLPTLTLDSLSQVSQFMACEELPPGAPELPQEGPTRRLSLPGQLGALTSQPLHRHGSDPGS

SMILES	Ki (Alpha2C) [nM]	Ki (5-HT7A) [nM]	Ki (HERG) [nM]	agonist activity at the μOR (μOR)	Ki (5-HT5A) [nM]	βArr2 recruitment compared with U50,488 (κOR)	Ki (nM) at NET (NET)	Ki (Alpha2B) [nM]	Ki (5-HT3) [nM]	Ki (nM) at DOR (DOR)	μOR cAMP inhibition Emax ± SEM (%) (μOR)	μOR cAMP inhibition pEC50 ± SEM (μOR)	EC50 (μOR; read-out: μOR cAMP inhibition EC50) [µM]	Ki (NET) [nM]	Ki (nM) at Alpha2B (Alpha2B)
C/C=C1/CN2CC[C@]34C(=C(C(=O)OC)[C@H]1C[C@H]23)Nc1ccc(Br)cc14 [Compound 2, 10-Bromoakuammicine]	2910	1520	1340	only weakly activated the μOR	721	more efficacious than the reference compound U50,488	— (“—” indicates compound produced less than 50% displacement of radioligand in primary binding screen at 10 μM.)	1250	210	— (“—” indicates compound produced less than 50% displacement of radioligand in primary binding screen at 10 μM.)					
C/C=C1/CN2CC[C@]34C(=C(C(=O)OC)[C@H]1C[C@H]23)Nc1ccc(I)cc14 [Compound 3, 10-Iodoakuammicine]	2860	1380	1100	only weakly activated the μOR	829	more efficacious than the reference compound U50,488			384	— (“—” indicates compound produced less than 50% displacement of radioligand in primary binding screen at 10 μM.)	<10	4.4 ± 1.9	41	3440	— (“—” indicates compound produced less than 50% displacement of radioligand in primary binding screen at 10 μM.)
